Measured values taken from ChEMBL document CHEMBL4340536, “Design, synthesis and structure-activity relationship study of aminopyridine derivatives as novel inhibitors of Janus kinase 2” (Bioorg Med Chem Lett, 2019).
Activity calls are given as the source filed them. No cut-off for these calls is given here.

Columns and labels:
HEL = assay: Antiproliferative activity against HEL cells harboring JAK2 V617F mutant measured after 3 days by CCK8 assay; assay type: functional, cell-based; details: Homo sapiens, 72 h
[1] = target: Tyrosine-protein kinase JAK1 (Homo sapiens, UniProt P23458); assay: Inhibition of human recombinant N-terminal hexahistidine tagged JAK1 JH1 catalytic domain (854 to 1154 residues) expressed in baculovirus infected Sf9 cells using Tyr6 peptide as substrate incubated for 30 secs under shaking condition measured after 1 hr by Z'-LYTE assay
Chain of Tyrosine-protein kinase JAK1 (P23458 whole entry, the tested form may be a part): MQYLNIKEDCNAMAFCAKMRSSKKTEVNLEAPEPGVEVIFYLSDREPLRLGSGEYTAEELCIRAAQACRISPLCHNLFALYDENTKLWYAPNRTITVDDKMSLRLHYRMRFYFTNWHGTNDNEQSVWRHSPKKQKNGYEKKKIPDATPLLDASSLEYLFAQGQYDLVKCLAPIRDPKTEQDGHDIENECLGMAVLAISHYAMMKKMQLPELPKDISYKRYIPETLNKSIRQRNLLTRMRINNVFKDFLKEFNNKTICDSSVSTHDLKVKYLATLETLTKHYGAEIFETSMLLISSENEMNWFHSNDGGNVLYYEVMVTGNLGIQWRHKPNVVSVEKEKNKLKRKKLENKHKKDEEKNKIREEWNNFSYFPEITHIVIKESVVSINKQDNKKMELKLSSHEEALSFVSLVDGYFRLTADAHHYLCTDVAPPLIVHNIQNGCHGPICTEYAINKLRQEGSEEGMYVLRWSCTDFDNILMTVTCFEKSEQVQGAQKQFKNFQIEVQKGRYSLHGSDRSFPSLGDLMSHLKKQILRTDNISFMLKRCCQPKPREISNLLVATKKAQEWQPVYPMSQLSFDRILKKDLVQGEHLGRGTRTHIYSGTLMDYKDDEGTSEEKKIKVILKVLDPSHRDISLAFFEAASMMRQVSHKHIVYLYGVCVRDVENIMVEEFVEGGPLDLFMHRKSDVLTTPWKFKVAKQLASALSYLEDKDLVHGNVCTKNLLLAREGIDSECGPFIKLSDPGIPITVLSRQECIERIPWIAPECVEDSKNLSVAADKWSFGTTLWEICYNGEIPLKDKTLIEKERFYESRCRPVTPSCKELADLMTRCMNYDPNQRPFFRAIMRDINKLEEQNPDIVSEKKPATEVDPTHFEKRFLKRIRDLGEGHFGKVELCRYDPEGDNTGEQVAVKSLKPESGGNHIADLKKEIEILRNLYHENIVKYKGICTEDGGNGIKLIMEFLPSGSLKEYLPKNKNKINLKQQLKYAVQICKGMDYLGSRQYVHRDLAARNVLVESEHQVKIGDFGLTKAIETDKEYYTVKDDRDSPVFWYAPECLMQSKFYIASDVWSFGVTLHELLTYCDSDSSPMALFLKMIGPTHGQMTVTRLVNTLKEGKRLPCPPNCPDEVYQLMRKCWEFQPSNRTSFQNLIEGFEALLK

[2] = target: T1, Tyrosine-protein kinase JAK3 (Homo sapiens, UniProt P52333); assay: Inhibition of human recombinant C-terminal hexahistidine tagged JAK3 JH1 catalytic domain (811 to 1124 residues) expressed in baculovirus infected Sf9 cells using Tyr6 peptide as substrate incubated for 30 secs under shaking condition measured after 1 hr by Z'-LYTE assay
T1 sequence (P52333 whole entry): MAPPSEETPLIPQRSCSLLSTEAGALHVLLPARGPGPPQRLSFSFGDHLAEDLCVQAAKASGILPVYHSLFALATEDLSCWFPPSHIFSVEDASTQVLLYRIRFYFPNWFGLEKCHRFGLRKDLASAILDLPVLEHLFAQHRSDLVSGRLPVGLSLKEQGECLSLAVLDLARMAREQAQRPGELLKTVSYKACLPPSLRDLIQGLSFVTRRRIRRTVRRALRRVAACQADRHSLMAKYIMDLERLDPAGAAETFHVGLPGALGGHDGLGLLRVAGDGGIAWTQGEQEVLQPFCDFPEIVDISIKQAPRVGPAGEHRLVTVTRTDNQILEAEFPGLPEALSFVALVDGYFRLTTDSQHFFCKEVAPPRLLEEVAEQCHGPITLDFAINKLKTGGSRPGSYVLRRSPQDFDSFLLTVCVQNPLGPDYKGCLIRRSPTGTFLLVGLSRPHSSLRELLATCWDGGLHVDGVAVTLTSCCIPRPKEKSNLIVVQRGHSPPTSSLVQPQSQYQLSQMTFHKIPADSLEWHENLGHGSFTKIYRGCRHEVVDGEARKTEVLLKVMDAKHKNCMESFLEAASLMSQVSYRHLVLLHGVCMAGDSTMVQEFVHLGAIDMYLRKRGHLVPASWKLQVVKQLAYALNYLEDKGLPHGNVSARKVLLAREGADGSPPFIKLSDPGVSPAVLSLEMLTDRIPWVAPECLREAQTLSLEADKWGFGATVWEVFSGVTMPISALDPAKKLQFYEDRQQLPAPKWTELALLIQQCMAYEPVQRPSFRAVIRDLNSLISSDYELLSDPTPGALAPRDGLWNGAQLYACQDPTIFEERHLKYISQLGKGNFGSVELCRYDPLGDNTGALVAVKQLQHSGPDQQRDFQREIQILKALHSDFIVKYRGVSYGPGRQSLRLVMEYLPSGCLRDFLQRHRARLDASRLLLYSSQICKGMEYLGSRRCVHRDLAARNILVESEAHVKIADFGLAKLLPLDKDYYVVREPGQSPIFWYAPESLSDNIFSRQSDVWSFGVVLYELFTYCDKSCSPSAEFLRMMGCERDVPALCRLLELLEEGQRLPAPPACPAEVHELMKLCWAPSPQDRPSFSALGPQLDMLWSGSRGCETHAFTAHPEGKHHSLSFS

[3] = target: Non-receptor tyrosine-protein kinase TYK2 (Homo sapiens, UniProt P29597); assay: Inhibition of TYK2 (unknown origin) using peptide as substrate preincubated for 10 mins followed by substrate addition by mobility shift assay
Chain of Non-receptor tyrosine-protein kinase TYK2 (P29597 whole entry, the tested form may be a part): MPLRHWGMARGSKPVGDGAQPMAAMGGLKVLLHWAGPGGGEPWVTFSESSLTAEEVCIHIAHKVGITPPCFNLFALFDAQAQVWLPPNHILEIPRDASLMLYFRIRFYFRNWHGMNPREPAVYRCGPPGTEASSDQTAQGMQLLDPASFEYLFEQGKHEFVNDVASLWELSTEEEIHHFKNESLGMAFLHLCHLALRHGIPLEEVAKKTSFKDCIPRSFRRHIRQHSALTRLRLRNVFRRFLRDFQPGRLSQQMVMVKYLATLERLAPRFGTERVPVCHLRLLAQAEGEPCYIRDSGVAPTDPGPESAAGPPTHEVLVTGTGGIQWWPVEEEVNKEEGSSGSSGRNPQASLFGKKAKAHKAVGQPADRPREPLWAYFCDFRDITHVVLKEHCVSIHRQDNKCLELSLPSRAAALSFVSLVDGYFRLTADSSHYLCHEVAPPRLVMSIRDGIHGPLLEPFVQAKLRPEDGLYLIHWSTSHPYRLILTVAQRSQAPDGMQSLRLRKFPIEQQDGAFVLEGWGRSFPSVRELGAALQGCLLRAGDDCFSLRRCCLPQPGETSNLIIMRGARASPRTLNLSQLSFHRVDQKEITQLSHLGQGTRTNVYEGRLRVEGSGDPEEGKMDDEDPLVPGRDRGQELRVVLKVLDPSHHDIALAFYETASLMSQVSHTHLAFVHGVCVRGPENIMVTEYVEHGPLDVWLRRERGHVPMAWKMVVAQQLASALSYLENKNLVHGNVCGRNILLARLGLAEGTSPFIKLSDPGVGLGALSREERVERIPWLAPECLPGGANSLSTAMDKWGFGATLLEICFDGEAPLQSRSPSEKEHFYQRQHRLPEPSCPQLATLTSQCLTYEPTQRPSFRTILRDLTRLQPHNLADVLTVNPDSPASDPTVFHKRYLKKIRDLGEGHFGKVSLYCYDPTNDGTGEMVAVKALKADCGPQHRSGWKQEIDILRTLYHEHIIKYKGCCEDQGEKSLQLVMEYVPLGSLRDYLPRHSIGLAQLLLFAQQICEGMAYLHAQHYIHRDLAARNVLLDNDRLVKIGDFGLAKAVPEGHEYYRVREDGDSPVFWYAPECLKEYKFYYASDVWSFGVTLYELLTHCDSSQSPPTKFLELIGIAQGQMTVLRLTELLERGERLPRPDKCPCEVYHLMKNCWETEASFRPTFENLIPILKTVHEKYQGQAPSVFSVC

Homo sapiens [4] = species: Homo sapiens; assay: Selectivity ratio of IC50 for human recombinant N-terminal hexahistidine tagged JAK1 JH1 catalytic domain (854 to 1154 residues) expressed in baculovirus infected Sf9 cells to IC50 for human recombinant N-terminal hexahistidine tagged JAK2 JH1 catalytic domain (835 to 1132 residues) expressed in baculovirus infected Sf9 cells
Homo sapiens [5] = species: Homo sapiens; assay: Selectivity ratio of IC50 for human recombinant C-terminal hexahistidine tagged JAK3 JH1 catalytic domain (811 to 1124 residues) expressed in baculovirus infected Sf9 cells to IC50 for human recombinant N-terminal hexahistidine tagged JAK2 JH1 catalytic domain (835 to 1132 residues) expressed in baculovirus infected Sf9 cells
Homo sapiens [6] = species: Homo sapiens; assay: Selectivity ratio of IC50 for TYK2 (unknown origin) to IC50 for human recombinant N-terminal hexahistidine tagged JAK2 JH1 catalytic domain (835 to 1132 residues) expressed in baculovirus infected Sf9 cells
[7] = target: T2, Tyrosine-protein kinase JAK2 (Homo sapiens, UniProt O60674); details: Sf9
T2 sequence (O60674 whole entry, the tested form may be a part): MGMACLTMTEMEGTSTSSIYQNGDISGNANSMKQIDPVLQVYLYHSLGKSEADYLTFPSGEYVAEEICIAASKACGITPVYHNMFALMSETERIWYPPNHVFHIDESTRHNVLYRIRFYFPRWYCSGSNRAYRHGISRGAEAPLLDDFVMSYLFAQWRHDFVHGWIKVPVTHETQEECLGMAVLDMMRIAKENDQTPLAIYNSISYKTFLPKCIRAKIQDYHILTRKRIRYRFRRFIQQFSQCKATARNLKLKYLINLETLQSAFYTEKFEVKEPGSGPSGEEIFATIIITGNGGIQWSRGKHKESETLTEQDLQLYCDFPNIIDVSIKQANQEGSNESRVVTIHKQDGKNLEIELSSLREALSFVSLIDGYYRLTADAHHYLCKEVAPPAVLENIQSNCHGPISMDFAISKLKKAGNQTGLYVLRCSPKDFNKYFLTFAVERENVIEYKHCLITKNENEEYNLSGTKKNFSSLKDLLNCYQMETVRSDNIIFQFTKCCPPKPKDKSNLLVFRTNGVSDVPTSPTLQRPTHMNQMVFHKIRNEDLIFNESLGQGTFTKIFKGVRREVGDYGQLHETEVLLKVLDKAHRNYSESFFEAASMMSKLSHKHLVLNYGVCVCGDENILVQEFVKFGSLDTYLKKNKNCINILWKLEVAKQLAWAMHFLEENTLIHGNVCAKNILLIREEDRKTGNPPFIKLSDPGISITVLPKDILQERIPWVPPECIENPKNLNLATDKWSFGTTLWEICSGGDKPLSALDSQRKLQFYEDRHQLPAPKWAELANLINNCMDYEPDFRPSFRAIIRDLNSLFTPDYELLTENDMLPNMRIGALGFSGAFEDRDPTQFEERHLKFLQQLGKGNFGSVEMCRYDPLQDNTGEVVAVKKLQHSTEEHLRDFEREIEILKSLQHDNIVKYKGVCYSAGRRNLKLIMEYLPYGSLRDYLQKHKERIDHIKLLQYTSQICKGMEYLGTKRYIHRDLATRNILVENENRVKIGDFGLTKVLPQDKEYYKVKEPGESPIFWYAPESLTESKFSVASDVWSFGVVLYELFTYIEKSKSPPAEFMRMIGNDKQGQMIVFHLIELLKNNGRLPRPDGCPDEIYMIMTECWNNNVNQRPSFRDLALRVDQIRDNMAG

[8] = target: T2, Tyrosine-protein kinase JAK2; assay: Inhibition of human recombinant N-terminal hexahistidine tagged JAK2 JH1 catalytic domain (835 to 1132 residues) expressed in baculovirus infected Sf9 cells using Tyr6 peptide as substrate incubated for 30 secs under shaking condition measured after 1 hr by Z'-LYTE assay
[9] = target: T2, Tyrosine-protein kinase JAK2; assay: Inhibition of human recombinant N-terminal hexahistidine tagged JAK2 JH1 catalytic domain (835 to 1132 residues) expressed in baculovirus infected Sf9 cells at 1 uM using Tyr6 peptide as substrate incubated for 30 secs under shaking condition measured after 1 hr by Z'-LYTE assay relative to control
[10] = Toxicity in incomplete Freund's adjuvant-induced Wistar rat arthritic model assessed as effect on body weight growth at 0.3 mg/kg, po administered daily for 28 days starting from 8 days post-immunization measured every 3 days during compound dosing; assay type: organism-based; details: in vivo
Rattus norvegicus [11] = assay: Antiarthritic activity in incomplete Freund's adjuvant-induced arthritis model Wistar rat at 0.3 mg/kg, po administered daily for 28 days starting from 8 days post-immunization measured daily during compound; assay type: functional, organism-based
[12] = Toxicity in incomplete Freund's adjuvant-induced Wistar rat arthritic model assessed as effect on body weight growth at 10 to 50 mg/kg, po administered daily for 28 days starting from 8 days post-immunization measured every 3 days during compound dosing; assay type: organism-based; details: in vivo
Rattus norvegicus [13] = assay: Antiarthritic activity in incomplete Freund's adjuvant-induced Wistar rat arthritic model assessed as decrease in arthritis swelling score at 50 mg/kg, po administered daily for 28 days starting from 8 days post-immunization measured daily during compound dosing; assay type: functional, organism-based
Rattus norvegicus [14] = assay: Antiarthritic activity in po dosed incomplete Freund's adjuvant-induced Wistar rat arthritic model assessed as reduction in foot swelling administered daily for 28 days starting from 8 days post-immunization measured daily during compound dosing; assay type: functional, organism-based
Rattus norvegicus [15] = assay: Antiarthritic activity in incomplete Freund's adjuvant-induced Wistar rat arthritic model assessed as decrease in arthritic incidences at 10 to 50 mg/kg, po administered daily for 28 days starting from 8 days post-immunization measured daily during compound dosing; assay type: functional, organism-based

SMILES: CC(Oc1cc(-c2cccc(C3CCNCC3)c2)cnc1N)c1cc(F)ccc1Cl (stereo not drawn)
- IC50 (HEL): 6.2 µM

SMILES: CC(Oc1cc(-c2cccc(N3CCNCC3)c2)cnc1N)c1cc(F)ccc1Cl (stereo not drawn)
- IC50 [1]: 0.12 µM
- IC50 [2]: 2.79 µM
- IC50 [3]: 2.53 µM
- Ratio IC50 (Homo sapiens [4]): 4
- Ratio IC50 (Homo sapiens [5]): 107
- Ratio IC50 (Homo sapiens [6]): 94
- IC50 (HEL): 7.2 µM

SMILES: C[C@@H](Oc1cc(-c2cnn(C3CCNCC3)c2)cnc1N)c1c(Cl)ccc(F)c1Cl [CRIZOTINIB]
- IC50 (HEL): 4.73 µM
- ΔTm [7]: 7.88 °C

SMILES: CC(Oc1cc(-c2ccc(N3CCNCC3)nc2)cnc1N)c1c(Cl)ccc(F)c1Cl (stereo not drawn)
- IC50 [8]: 0.804 µM
- IC50 (HEL): 7.76 µM

SMILES: CC(Oc1cc(-c2cnn(C3CCOCC3)c2)cnc1N)c1c(Cl)ccc(F)c1Cl (stereo not drawn)
- IC50 [8]: 0.065 µM
- IC50 (HEL): > 100 µM

SMILES: COc1ccc(F)c(Cl)c1C(C)Oc1cc(-c2cnn(C3CCNCC3)c2)cnc1N (stereo not drawn)
- IC50 [1]: 1.22 µM
- IC50 [8]: 0.026 µM
- IC50 [2]: 1.76 µM
- IC50 [3]: 0.774 µM
- Ratio IC50 (Homo sapiens [4]): 46
- Ratio IC50 (Homo sapiens [5]): 66
- Ratio IC50 (Homo sapiens [6]): 30
- IC50 (HEL): 13.6 µM

SMILES: CC(Oc1cc(-c2cccnc2)cnc1N)c1c(Cl)ccc(F)c1Cl (stereo not drawn)
- IC50 [8]: 3.05 µM
- IC50 (HEL): 20.1 µM

SMILES: CC(Nc1cc(-c2cnn(C3CCNCC3)c2)cnc1N)c1c(Cl)ccc(F)c1Cl (stereo not drawn)
- IC50 [8]: 0.126 µM
- IC50 (HEL): 10.8 µM

SMILES: CC(Oc1cc(-c2cnn(C3CCNCC3)c2)cnc1N)c1ccccc1 (stereo not drawn)
- IC50 [8]: 0.215 µM
- IC50 (HEL): 29.6 µM

SMILES: CC(Oc1cc(-c2ccccc2)cnc1N)c1c(Cl)ccc(F)c1Cl (stereo not drawn)
- inhibition [9]: 7.15%
- IC50 (HEL): > 100 µM

SMILES: CN(Cc1cnc2nc(N)nc(N)c2n1)c1ccc(C(=O)N[C@@H](CCC(=O)O)C(=O)O)cc1 [METHOTREXATE]
- Activity [10]: Toxic
- Activity (Rattus norvegicus [11]): Active

SMILES: CCC(Oc1cc(-c2cnn(C3CCNCC3)c2)cnc1N)c1c(Cl)ccc(F)c1Cl (stereo not drawn)
- IC50 (HEL): 9.98 µM

SMILES: CC(Oc1cc(-c2cn[nH]c2)cnc1N)c1cc(F)ccc1Cl (stereo not drawn)
- IC50 [1]: 0.082 µM
- IC50 [2]: 0.965 µM
- IC50 [3]: 1.45 µM
- Ratio IC50 (Homo sapiens [4]): 5
- Ratio IC50 (Homo sapiens [5]): 60
- Ratio IC50 (Homo sapiens [6]): 91
- IC50 (HEL): 4.85 µM

SMILES: CC(Oc1cc(-c2cnn(C3CCNCC3)c2)cnc1N)c1c(Cl)ccc(F)c1Cl (stereo not drawn)
- IC50 (HEL): 6.58 µM

SMILES: CC(Oc1cc(-c2cnn(C3CCNCC3)c2)cnc1N)c1cc(F)ccc1Cl (stereo not drawn)
- IC50 [1]: 0.66 µM
- IC50 [8]: 0.006 µM
- IC50 [2]: 0.513 µM
- IC50 [3]: 1.3 µM
- Ratio IC50 (Homo sapiens [4]): 110
- Ratio IC50 (Homo sapiens [5]): 86
- Ratio IC50 (Homo sapiens [6]): 216
- IC50 (HEL): 15 µM
- Activity [12]: Non-Toxic
- Activity (Rattus norvegicus [13]): Active
- Activity (Rattus norvegicus [14]): Dose-dependent effect
- Activity (Rattus norvegicus [15]): Active

SMILES: CC(Oc1cc(-c2ccc(C3CCNCC3)cc2)cnc1N)c1cc(F)ccc1Cl (stereo not drawn)
- IC50 (HEL): 16 µM

SMILES: COc1ccc(F)cc1C(C)Oc1cc(-c2cnn(C3CCNCC3)c2)cnc1N (stereo not drawn)
- IC50 [1]: 1.8 µM
- IC50 [2]: 1.58 µM
- IC50 [3]: 0.794 µM
- Ratio IC50 (Homo sapiens [4]): 598
- Ratio IC50 (Homo sapiens [5]): 528
- Ratio IC50 (Homo sapiens [6]): 264
- IC50 (HEL): 4.19 µM

SMILES: CC(Oc1cc(-c2ccccc2)cnc1N)c1cc(F)ccc1Cl (stereo not drawn)
- IC50 (HEL): > 100 µM

SMILES: CC(Oc1cc(-c2cnn(C3CCNCC3)c2)cnc1N)c1c(Cl)cccc1Cl (stereo not drawn)
- IC50 (HEL): 28.4 µM

SMILES: CC(Oc1cc(-c2cncc(N3CCNCC3)c2)cnc1N)c1c(Cl)ccc(F)c1Cl (stereo not drawn)
- IC50 [8]: 0.119 µM
- IC50 (HEL): 7.45 µM

SMILES: CC(Oc1cc(-c2ccc(N3CCNCC3)cc2)cnc1N)c1cc(F)ccc1Cl (stereo not drawn)
- IC50 (HEL): 19.7 µM

SMILES: CC(Oc1cc(-c2cnn(C3CCNCC3)c2)cnc1N)C1CCCCC1 (stereo not drawn)
- IC50 (HEL): 20.9 µM

SMILES: N#CC[C@H](C1CCCC1)n1cc(-c2ncnc3[nH]ccc23)cn1 [RUXOLITINIB]
- IC50 (HEL): 7.64 µM
